This assay has as its target Squalene monooxygenase (Rattus norvegicus, UniProt P52020). The assay is described as follows: The compound was tested for its inhibitory activity against rat Squalene epoxidase.

Sequence of Squalene monooxygenase (P52020 whole entry): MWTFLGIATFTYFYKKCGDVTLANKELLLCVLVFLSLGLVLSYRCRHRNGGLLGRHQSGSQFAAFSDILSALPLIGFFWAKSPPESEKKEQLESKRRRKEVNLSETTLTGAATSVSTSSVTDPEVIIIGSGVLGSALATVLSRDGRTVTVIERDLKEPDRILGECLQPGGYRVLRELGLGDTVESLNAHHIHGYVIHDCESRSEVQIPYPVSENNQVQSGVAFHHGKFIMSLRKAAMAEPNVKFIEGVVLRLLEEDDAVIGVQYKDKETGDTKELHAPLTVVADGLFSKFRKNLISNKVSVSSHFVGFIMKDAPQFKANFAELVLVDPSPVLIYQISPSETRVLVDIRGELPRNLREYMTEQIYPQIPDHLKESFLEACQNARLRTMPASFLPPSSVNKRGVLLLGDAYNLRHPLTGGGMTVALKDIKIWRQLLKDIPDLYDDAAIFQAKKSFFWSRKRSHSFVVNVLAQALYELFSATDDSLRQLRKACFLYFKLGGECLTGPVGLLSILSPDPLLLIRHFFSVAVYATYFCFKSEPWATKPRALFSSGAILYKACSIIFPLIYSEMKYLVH

`CNCCC/C(C)=C/CC/C(C)=C/CC/C=C(\C)CC/C=C(\C)CCCNCCCCCCN`: the IC50 – broadly, the concentration needed to halve the response being measured – stood at 1000 nM.
